In brackets after ≈: the same amount, converted by molar mass. Read-outs that look alike come from different tables or passages of the source.
Tests used:
[1] = test system: S. pneumoniae ATCC 700677 MDR; test: microbe, parasite or virus in culture; type: cell-based, Streptococcus pneumoniae; conditions: Streptococcus pneumoniae, ATCC700677, 24 h
Method: (§1) The compounds, along with standard antibiotics were serially diluted twofold across the wells of 96-well non-binding surface (NBS) polystyrene plates (Corning 3641). […] Standards ranged from 64 to 0.03 µg mL^−1 and compounds from 8 to 0.003 µg mL^−1 with final assay volumes of 100 µL per well. Gram-positive bacteria were cultured in Mueller Hinton broth (MHB) (Bactolaboratories, Cat. no. 211443) at 37 °C overnight. A sample of each culture was then diluted 40-fold in fresh MHB and incubated at 37 °C for 2–3 h. The resultant mid-log phase cultures were added to the compound-containing 96-well plates to give a final cell density of 5 × 10^5 colony forming unit (CFU) mL^−1. All the plates were covered and incubated at 37 °C for 24 h. MICs were the lowest concentration showing no visible growth.

[2] = test system: S. pneumoniae ATCC 33400; test: microbe, parasite or virus in culture; type: cell-based, Streptococcus pneumoniae; conditions: Streptococcus pneumoniae, ATCC33400, 24 h
Method: as §1

[3] = test system: Methicillin-resistant S. aureus ATCC 43300; test: microbe, parasite or virus in culture; conditions: for MIC MRSA: ATCC 43300, 24 h
Procedure, shortened: (§2)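 MICs were determined by broth microdilution in Mueller Hinton broth. Bacteria were pregrown overnight, diluted 40-fold and regrown 2–3 h at 37 °C.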

[4] = Cytotoxicity MTT assay; type: cell-based, human; conditions: human
Method: Compound cytotoxicity was evaluated against HepG2 (ATCC-®HB-8065 liver hepatoceullular carcinoma) and HEK293 (ATCC®CRL-1573, embryonic kidney) human cell lines using standard (3-(4,5-dimethylthiazol-2-yl)−2,5-diphenyltetrazolium bromide (MTT) assay protocol with slight changes. In brief, HepG2 and HEK293 cells (assessed annually for mycoplasma contamination) were seeded as 1.5 × 10^4 cells per well in a clear 96-well tissue culture treated plate in a final volume of 100 μL in Dulbecco’s Modified Eagle Medium (DMEM)(GIBCO-Invitrogen #11995-073), in which 1% of FBS was added. Cells were incubated for 24 h at 37 °C, 5% CO2 to allow cells to attach to the plates. […] After the incubation, 0.4 mg mL^−1 MTT (3-(4,5-dimethylthiazol-2-yl)−2,5-diphenyltetrazolium bromide) (Invitrogen) was added to each well. The plates were then incubated for 2 h at 37 °C, 5% CO2. The media was removed, and purple formazan crystals were resuspended in 60 μL of DMSO. The absorbance was read at 570 nm using a Polarstar Omega plate reader. The data was then analysed by Prism software. Results are presented as the average percentage of control ± S.D. for each set of duplicate wells using the following equation: percent viability = (ABSTEST – ABSPOSITIVE CTRL / ABSUNTREATED –ABS POSITIVE CTRL)×100.

[5] = Cytotoxicity MTT assay; type: cell-based, human; conditions: human; remark: listed apart in the source
Method: Compound cytotoxicity was evaluated against HepG2 (ATCC-®HB-8065 liver hepatoceullular carcinoma) and HEK293 (ATCC®CRL-1573, embryonic kidney) human cell lines using standard (3-(4,5-dimethylthiazol-2-yl)−2,5-diphenyltetrazolium bromide (MTT) assay protocol with slight changes. In brief, HepG2 and HEK293 cells (assessed annually for mycoplasma contamination) were seeded as 1.5 × 10^4 cells per well in a clear 96-well tissue culture treated plate in a final volume of 100 μL in Dulbecco’s Modified Eagle Medium (DMEM)(GIBCO-Invitrogen #11995-073), in which 1% of FBS was added. Cells were incubated for 24 h at 37 °C, 5% CO2 to allow cells to attach to the plates. Compounds prepared at 100 µM to 0.046 µM in threefold dilutions were added into each well and incubated for 24 h at 37 °C, 5% CO2. After the incubation, 0.4 mg mL^−1 MTT (3-(4,5-dimethylthiazol-2-yl)−2,5-diphenyltetrazolium bromide) (Invitrogen) was added to each well. The plates were then incubated for 2 h at 37 °C, 5% CO2. The media was removed, and purple formazan crystals were resuspended in 60 μL of DMSO. The absorbance was read at 570 nm using a Polarstar Omega plate reader. The data was then analysed by Prism software. Results are presented as the average percentage of control ± S.D. for each set of duplicate wells using the following equation: percent viability = (ABSTEST – ABSPOSITIVE CTRL / ABSUNTREATED –ABS POSITIVE CTRL)×100.

[6] = test system: Vancomycin-resistant S. aureus NARSA VRS4; test: microbe, parasite or virus in culture; type: cell-based, Staphylococcus aureus; conditions: for MIC VRSA: Vancomycin-resistant NARSA VRS4
[7] = test system: S. aureus ATCC 43300 MRSA; test: microbe, parasite or virus in culture; type: cell-based, Staphylococcus aureus; conditions: Staphylococcus aureus, 24 h
Method: as §1

[8] = test system: Vancomycin-resistant (VanA) Enterococcus faecium ATCC 51559; test: microbe, parasite or virus in culture; conditions: for MIC VRE: ATCC 51559
Procedure, shortened: as §2

[9] = test system: Multi-drug-resistant S. pneumoniae ATCC 700677; test: microbe, parasite or virus in culture; conditions: for MIC MDR S.P.: ATCC 700677
Procedure, shortened: as §2

[10] = test system: Vancomycin-intermediate S. aureus NRS1; test: microbe, parasite or virus in culture; conditions: for MIC VISA: Vancomycin-intermediate NRS1
Procedure, shortened: as §2

[11] = 37 °C, 20 µM
[12] = in vitro; conditions: human, 50% human plasma (pooled, sodium heparin) in PBS, pH 7.4
[13] = Haemolysis assay; type: cell-based; conditions: human, whole blood
Method: Haemolytic activity was measured as previously described with slight modifications, [45]. Fresh human venal blood was collected from healthy volunteers and pretreated with the anticoagulant sodium citrate. Serial twofold dilutions of each antibiotic, dissolved in 0.9% NaCl solution, were added to fresh human whole blood (50% final, vol:vol) to the final volume of 80 μL and incubated at 37 °C for 3 h on a horizontal shaker at 200 rpm. For negative and positive controls, human whole blood in 0.9% NaCl solution (A blank) and in sdH2O (A water) were used, respectively. After incubation, both test and A blank were mixed with 1 mL 0.9% NaCl solution, or sdH2O for the complete […] A water. After centrifugation of samples at 2500 rpm (700 × g) for 5 min, the release of haemoglobin was monitored by measuring the absorbance (A sample) of the supernatant at 540 nm using BMG Labtech PolarStar Omega multimode reader. The percentage of haemolysis was calculated according to the equation: %haemolysis=Asample-Ablank∕Awater-Ablank×100

CCCCCCCCCCNCCN[C@@]1(C)C[C@H](O[C@H]2[C@H](Oc3c4cc5cc3Oc3ccc(cc3Cl)[C@@H](O)[C@@H](NC(=O)[C@@H](CC(C)C)NC)C(=O)N[C@@H](CC(N)=O)C(=O)N[C@H]5C(=O)N[C@H]3C(=O)N[C@H](C(=O)N[C@H](C(=O)O)c5cc(O)c(CNCP(=O)(O)O)c(O)c5-c5cc3ccc5O)[C@H](O)c3ccc(c(Cl)c3)O4)O[C@H](CO)[C@@H](O)[C@@H]2O)O[C@@H](C)[C@H]1O [Compound 2, Telavancin]
MIC ([1]; read-out: MIC S. pneumoniae ATCC 700677 MDR, 1% Survanta): 0.06 to 0.125 µg/mL (≈ 0.0342 to 0.0712 µM) | MIC ([1]; read-out: MIC S. pneumoniae ATCC 700677 MDR, 5% Survanta): 0.25 µg/mL (≈ 0.142 µM) | MIC ([1]; read-out: MIC S. pneumoniae ATCC 700677 MDR, no added Survanta): 0.06 to 0.125 µg/mL (≈ 0.0342 to 0.0712 µM) | MIC ([2]; read-out: MIC S. pneumoniae ATCC 33400, 1% Survanta): 0.25 µg/mL (≈ 0.142 µM) | MIC ([2]; read-out: MIC S. pneumoniae ATCC 33400, 5% Survanta): 0.5 µg/mL (≈ 0.285 µM) | MIC ([2]; read-out: MIC S. pneumoniae ATCC 33400, no added Survanta): 0.125 to 0.25 µg/mL (≈ 0.0712 to 0.142 µM) | MIC ([3]; Staphylococcus aureus, ATCC43300|MRSA, 24 h, read-out: MIC MRSA, S. aureus ATCC 43300, NBS plates, MHB, 24 h, substance alone): 0.03 µg/mL (≈ 0.0171 µM) | CC50 at 24 h ([4]; 24 h, MTT, 1% FBS, read-out: Cytotoxicity CC50 HepG2): > 100 µM | CC50 at 24 h ([5]; 24 h, MTT, 1% FBS, read-out: Cytotoxicity CC50 HEK293): > 100 µM | MIC ([6]; Staphylococcus aureus, VRSA, read-out: MIC VRSA): 1 µg/mL (≈ 0.57 µM) | MIC ([7]; read-out: MIC S. aureus ATCC 43300 MRSA, 1% Survanta): 0.126 µg/mL (≈ 0.0715 µM) | MIC ([7]; read-out: MIC S. aureus ATCC 43300 MRSA, 5% Survanta): 0.25 to 0.5 µg/mL (≈ 0.142 to 0.285 µM) | MIC ([7]; read-out: MIC S. aureus ATCC 43300 MRSA, no added Survanta): 0.125 µg/mL (≈ 0.0712 µM) | MIC ([8]; Enterococcus faecium, ATCC51559 / VRE, read-out: MIC VRE): 2 µg/mL (≈ 1.14 µM) | MIC ([9]; Streptococcus pneumoniae, ATCC700677, read-out: MIC MDR S.P.): 0.06 µg/mL (≈ 0.0342 µM) | MIC ([10]; Staphylococcus aureus, NRS1 / VISA, read-out: MIC VISA): 0.25 µg/mL (≈ 0.142 µM)

CCCCCCCCCCCCCC(=O)N[C@@H](CCCCN)C(=O)N[C@@H](CCCCN)C(=O)N[C@@H](CCCCN)C(=O)N[C@@H](CSSCCNC(=O)[C@H]1NC(=O)[C@H]2NC(=O)[C@H](NC(=O)[C@@H]3NC(=O)[C@H](CC(N)=O)NC(=O)[C@H](NC(=O)[C@@H](CC(C)C)NC)[C@H](O)c4ccc(c(Cl)c4)Oc4cc3cc(c4O[C@@H]3O[C@H](CO)[C@@H](O)[C@H](O)[C@H]3O[C@H]3C[C@](C)(N)[C@H](O)[C@H](C)O3)Oc3ccc(cc3Cl)[C@H]2O)c2ccc(O)c(c2)-c2c(O)cc(O)cc21)C(=O)O [Compound 15, nC13CO-KKKC(SCH 2 CH 2 NH-Vancomycin)-OH]
% compound remaining after incubation in 50% human plasma, 0h [11]: 100% | MIC MRSA [3]: <0.003 µg/mL | remaining at 1 h, 20 µM [12]: 77% | remaining at 3 h, 20 µM [12]: 64% | remaining at 6 h, 20 µM [12]: 51% | remaining at 24 h, 20 µM [12]: 3% | CC50 at 24 h [4]: 11 µM | CC50 at 24 h [5]: 18 µM | MIC VRE [8]: 0.02 µg/mL (≈ 0.009 µM) | MIC MDR S.P. [9]: <0.003 µg/mL | MIC VISA [10]: 0.02 µg/mL (≈ 0.009 µM)

CCCCCCCCCCC(=O)N[C@@H](CCCCN)C(=O)N[C@@H](CCCCN)C(=O)N[C@@H](CCCCNC(=O)[C@H]1NC(=O)[C@H]2NC(=O)[C@H](NC(=O)[C@@H]3NC(=O)[C@H](CC(N)=O)NC(=O)[C@H](NC(=O)[C@@H](CC(C)C)NC)[C@H](O)c4ccc(c(Cl)c4)Oc4cc3cc(c4O[C@@H]3O[C@H](CO)[C@@H](O)[C@H](O)[C@H]3O[C@H]3C[C@](C)(N)[C@H](O)[C@H](C)O3)Oc3ccc(cc3Cl)[C@H]2O)c2ccc(O)c(c2)-c2c(O)cc(O)cc21)C(=O)NC [Compound 22, nC10CO-KK-K(Vancomycin)-NHMe]
hemolysis at 3 h ([13]; 100 µg mL-1): 1.9% | hemolysis at 3 h ([13]; 1600 µg mL-1): 2.7% | MIC MRSA [3]: 0.015 µg/mL (≈ 0.00744 µM) | CC50 at 24 h [4]: 80 µM | CC50 at 24 h [5]: 47 µM | MIC VRSA [6]: 0.5 µg/mL (≈ 0.248 µM) | MIC VRE [8]: 4 µg/mL (≈ 1.98 µM) | MIC MDR S.P. [9]: 0.015 µg/mL (≈ 0.00744 µM) | MIC VISA [10]: 0.125 µg/mL (≈ 0.062 µM)

CN[C@H](CC(C)C)C(=O)N[C@H]1C(=O)N[C@@H](CC(N)=O)C(=O)N[C@H]2C(=O)N[C@H]3C(=O)N[C@H](C(=O)N[C@H](C(=O)NCCCC[C@H](NC(=O)[C@H](CCCCN)NC(=O)[C@H](CCCCN)NC(C)=O)C(=O)O)c4cc(O)cc(O)c4-c4cc3ccc4O)[C@H](O)c3ccc(c(Cl)c3)Oc3cc2cc(c3O[C@@H]2O[C@H](CO)[C@@H](O)[C@H](O)[C@H]2O[C@H]2C[C@](C)(N)[C@H](O)[C@H](C)O2)Oc2ccc(cc2Cl)[C@H]1O [Compound 25, Ac-KK-K(Vancomycin)-OH]
CC50 at 24 h [4]: > 500 µM | CC50 at 24 h [5]: > 500 µM | MIC VRSA [6]: >8 µg/mL
